In patent publication US11225466B2, “Benzothiadiazepine compounds and their use as bile acid modulators” (Albireo AB, priority 2019, dated 2022) one finds IC50, Papp A→B and Papp B→A data, which are given here for 3 compounds.

Structures are written as SMILES.

In one data set the target is T1, Human LBAT (Homo sapiens, UniProt Q14973).
T1 sequence (Q14973 1-349): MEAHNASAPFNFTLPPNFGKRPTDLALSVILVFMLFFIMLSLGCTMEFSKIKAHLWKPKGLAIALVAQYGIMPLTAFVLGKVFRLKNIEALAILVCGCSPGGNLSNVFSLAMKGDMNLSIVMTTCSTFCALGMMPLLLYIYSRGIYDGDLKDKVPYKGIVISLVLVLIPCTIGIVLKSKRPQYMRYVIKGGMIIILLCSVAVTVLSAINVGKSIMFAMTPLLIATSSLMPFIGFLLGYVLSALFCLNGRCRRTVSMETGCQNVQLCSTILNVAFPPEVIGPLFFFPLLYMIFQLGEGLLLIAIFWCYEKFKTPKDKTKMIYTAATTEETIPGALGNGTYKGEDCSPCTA
As to the kind of experiment: LBAT (h/m) assay: 3H-taurocholic acid uptake in human LBAT-overexpressing cells. The data set is classed as cell-based. The conditions noted are these: 0.3 μM 3H-taurocholic acid and 7.5 μM cold taurocholic acid, read-out: hLBAT IC50. As to the method: LBAT (h/m) Assay Protocol
20,000 cells (Human or Mouse LBAT-overexpressing cells) were seeded in 96-wells plate (Corning CLS3809) in 100 μL MEM-alpha medium (Gibco 12571-063) supplemented with 10% FBS (Gibco 10438026) containing Geneticin (Gibco 10131-027) (1 mg/mL) and incubated at 37° C. in 5% CO2 for 24 hours. After incubation, media was decanted from the wells and cells were washed two times with 300 μL of basal MEM-alpha medium (FBS-free). After decanting basal MEM-alpha medium each time, plates were tapped against paper towel to ensure maximum removal of residual media.
For human LBAT, incubation mix was prepared by adding test inhibitor dilutions (3-fold serial dilution in DMSO (Sigma D2650), 10 points) in MEM-alpha (without FBS) containing 0.3 μM 3H-taurocholic acid (ARC ART-1368) and 7.5 μM cold taurocholic acid (Sigma T4009) (maintaining 0.2% final DMSO concentration). […]
100 μL of MicroScint-20 (PerkinElmer 6013621) was added to the wells and kept overnight at room temperature before reading the plates in TopCount NXT™ Microplate Scintillation and Luminescence Counter from PerkinElmer under 3H Test protocol (set at 120 seconds reading time per well, with normal plate orientation). […]

A further data set has as its target T2, Human IBAT (Homo sapiens, UniProt Q12908).
T2 construct: expressed in transfected cells; kept under Puromycin selection
T2 sequence (Q12908 1-348): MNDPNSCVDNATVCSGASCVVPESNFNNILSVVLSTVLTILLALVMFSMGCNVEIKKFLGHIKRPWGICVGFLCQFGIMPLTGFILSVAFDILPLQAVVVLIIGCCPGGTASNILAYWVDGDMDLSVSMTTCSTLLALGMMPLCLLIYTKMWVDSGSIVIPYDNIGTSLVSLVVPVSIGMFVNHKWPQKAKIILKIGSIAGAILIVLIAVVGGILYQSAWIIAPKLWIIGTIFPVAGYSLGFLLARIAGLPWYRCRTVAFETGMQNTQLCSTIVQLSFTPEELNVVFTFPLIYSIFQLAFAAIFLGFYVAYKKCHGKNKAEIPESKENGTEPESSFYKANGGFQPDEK
As to the kind of experiment: IBAT (h/m) assay: 3H-taurocholic acid uptake in human IBAT-overexpressing cells. The note with it: 0.25 μM 3H-taurocholic acid and 5 μM cold taurocholic acid, read-out: hIBAT IC50. The data set is classed as cell-based. The method, then: IBAT (h/m) Assay Protocol
10,000 cells (Human or Mouse IBAT-overexpressing cells) were seeded in 96-wells plate (Corning CLS3809) in 200 μL MEM-alpha medium (Gibco 12571-063) supplemented with 10% FBS (Gibco 10438026) containing Puromycin (Gibco A1113803) (10 μg/mL) and incubated at 37° C. in 5% CO2 for 48 hours. After incubation, media was decanted from the wells and cells were washed two times with 300 μL of basal MEM-alpha medium (FBS-free). After decanting basal MEM-alpha medium each time, plates were tapped against paper towel to ensure maximum removal of residual media.
Test inhibitor dilutions (highest test concentration being 10 μM, 3-fold serial dilution, 10 points) prepared in DMSO (Sigma D2650) were added in incubation mix (maintaining 0.2% final DMSO concentration) containing 0.25 μM 3H-taurocholic acid (ARC ART-1368) and 5 μM of cold taurocholic acid (Sigma T4009). 50 μL of incubation mix containing test inhibitors was then added to the wells (in duplicate) and the plates were incubated for 20 minutes in a CO2 incubator at 37° C. After incubation, the reaction was stopped by keeping the plates on ice water mix for 2-3 minutes and then the incubation mix was aspirated completely from the wells. The wells were washed two times with 250 μL of chilled unlabeled 1 mM taurocholic acid dissolved in HEPES (Gibco 15630080)-buffered (10 mM) HBSS (Gibco 14175079) (pH 7.4). The plates were tapped against a paper towel after every wash to ensure maximum removal of blocking buffer.
100 μL of MicroScint-20 (PerkinElmer 6013621) was added to the wells and kept overnight at room temperature before reading the plates in TopCount NXT™ Microplate Scintillation and Luminescence Counter from PerkinElmer under 3H Test protocol (set at 120 seconds reading time per well).
All test compounds were provided in powder form at room temperature. 10 mM DMSO stocks of the test compounds were prepared, aliquoted and stored at −20° C. From the 10 mM DMSO stock of the compounds, a 3-fold serial dilution in DMSO was prepared to get a total of 10 dilutions of the test compounds. […]

The nature of data set [1]: Bidirectional permeability assay (Caco-2 cells). The data set is classed as in vitro ADME. The conditions noted are these: human, Caco-2, pH 7.4, 120 minutes at 37° C., FaSSIF buffer; for Papp A→B at 120 min, 10 µM: absorptive direction (A2B); for Papp B→A at 120 min, 10 µM: secretory direction (B2A). The source says:
Bidirectional Permeability Assay (Caco-2 Cells)

Broadly, the IC50 is the midpoint of a concentration-inhibition curve. The term Papp A→B denotes how fast a substance crosses the layer from the apical side. In general, Papp B→A refers to the apparent permeability from the basolateral to the apical side of a cell layer. Take `CCCC[C@@]1(CC)CN(c2ccccc2)c2cc(SC)c(OCC(=O)O)cc2S(=O)(=O)N1` (single isomer, unassigned) [Example 2]: the IC50 at Human LBAT is 3980 nM. The IC50 on Human IBAT was 5.7 nM. Besides, in data set [1], the Papp A→B at 120 min, 10 µM is 2.52 ×10⁻⁶ cm/s and the Papp B→A at 120 min, 10 µM worked out at 4 ×10⁻⁶ cm/s.
Consider `CCCC[C@]1(CC)CN(c2ccccc2)c2cc(SC)c(OCC(=O)O)cc2S(=O)(=O)N1` (single isomer, unassigned) [Example 3], for which the IC50 stood at 5000 nM on Human LBAT and 182 nM on Human IBAT.
In the case of `CCCCC1(CC)CN(c2ccccc2)c2cc(SC)c(OCC(=O)O)cc2S(=O)(=O)N1` (stereo not drawn) [Example 1, 2-((3-butyl-3-ethyl-7-(methylthio)-1,1-dioxido-5-phenyl-2,3,4,5-tetrahydrobenzo-1,2,5-thiadiazepin-8-yl)oxy)acetic Acid], the IC50 at Human IBAT came to 8.8 nM. Moreover, in data set [1], the Papp A→B at 120 min, 10 µM is 1.1 ×10⁻⁶ cm/s and the basolateral-to-apical permeability (Papp B→A) at 120 min, 10 µM was determined as 2.9 ×10⁻⁶ cm/s.
